Source: patent publication US7759345B2, “Antitumoral derivatives of ET-743” (priority 2001, dated 2010)
Where two headings read alike, the source gives them in different places.

Legend:
A-549 = test: Inhibition of cell growth by counting cells, A-549; type: cell-based, human; conditions: three days of incubation, read-out: IC50 (molar) A-549
Experimental: (§1) 1°.—Inhibition of Cell Growth by Counting Cells.
(§2) This form of the assay employs 24 well multidishes of 16 mm diameter (Bergeron, 1984; Schroeder, 1981). The tumor cell lines employed are: P-388 (ATCC CCL 46), suspension culture of a lymphoid neoplasm from a DBA/2 mouse; A-549 (ATCC CCL 185), monolayer culture of a human lung carcinoma; HT-29 (ATCC HTB-38), monolayer culture of a human colon carcinoma; MEL-28 (ATCC HTB-72), monolayer culture of a human melanoma and DU-145 (ATCC HTB-81), monolayer culture of a human prostate carcinoma.
(§3) Cells were maintained, in logarithmic phase of growth in Eagle's Minimum Essential Medium, with Earle's Balanced Salts, with non-essential amino acids, with 2.0 mM L-Glutamine, without sodium bicarbonate (EMEM/neaa), supplemented with 10% Fetal Calf Serum (FCS), 10^−2 M. sodium bicarbonate and 0.1 U/l penicillin G+0.1 g/l streptomycin sulfate. For the experiments, cells are harvested from subconfluent cultures using trypsin and resuspended in fresh medium before plating.
(§4) A-549, HT-29, MEL-28 and DU-145 cells were seeded into 16 mm diameter wells at 1×10^4 cells per well in 1 ml aliquots of EMEM 5% FCS containing different concentrations of the sample to be tested. A separate set of cultures without drug was seeded as control of growth, to ensure that cells remained in exponential phase of growth. All determinations are carrying out in duplicate. After three days of incubation at 37° C., 5% CO2 in a 98% humid atmosphere cells were stained with 0.1% crystal violet. An approximately IC50 was determined by comparing the growth in wells with drug to the growth in wells control.
(§5) For quantifying the activity, after the incubation time, cells are trypsinized and counted in a Coulter Counter ZM. All counts (net cells per well), represent the average of duplicate wells. % G, percent of growth relative to cultures without drug. The results of these assays are used to generate dose-response curves from which more precise IC50 values are determined (sample concentration which produces 50% cell growth inhibition).
(§6) Obtained results may predict the usefulness of a certain drug as a potential cancer treatment. For this technique, compounds which show IC50 values smaller than 1 μg/ml are selected to continue with further studies. IC50's data allow to predict that not only could a drug be cystostatic, but also it could have a potential in terms of tumor reduction.

HT-29 = test: Inhibition of cell growth by counting cells, HT-29; type: cell-based, human; conditions: three days of incubation, read-out: IC50 (molar) HT-29
Experimental: as §1, §2, §3, §4, §5, §6

| SMILES | IC50 (A-549; Homo sapiens, A549, 72 h) | IC50 (HT-29; Homo sapiens, HT-29, 72 h) | IC50 (A-549) | IC50 (HT-29) |
| --- | --- | --- | --- | --- |
| COc1cc2c(cc1OC(=O)OC(C)(C)C)CCN[C@]21CS[C@@H]2c3c(OC(=O)/C=C/c4ccccc4)c(C)c4c(c3[C@H](COC1=O)N1C2[C@H]2c3c(cc(C)c(OC)c3OC(=O)/C=C/c3ccccc3)C[C@@H]([C@@H]1C#N)N2C)OCO4 (some centres unmarked) [Compound 114] | 9.18 nM | 9.18 nM | – | – |
| C=CCOC(=O)Oc1c(C)c2c(c3c1[C@H]1SC[C@]4(NCCc5cc(OC(=O)OC(C)(C)C)c(OC)cc54)C(=O)OC[C@@H]3N3C1[C@H]1c4c(cc(C)c(OC)c4O)C[C@@H]([C@@H]3C#N)N1C)OCO2 (some centres unmarked) [Compound 115] | 0.11 nM | 0.11 nM | – | – |
| COc1cc2c(cc1OC(=O)OC(C)(C)C)CCN[C@]21CS[C@@H]2c3c(OC(=O)CCCl)c(C)c4c(c3[C@H](COC1=O)N1C2[C@H]2c3c(cc(C)c(OC)c3O)C[C@@H]([C@@H]1C#N)N2C)OCO4 (some centres unmarked) [Compound 116] | 0.109 nM | 0.109 nM | – | – |
| COc1cc2c(cc1OC(=O)OC(C)(C)C)CCN[C@]21CS[C@@H]2c3c(OC)c(C)c4c(c3[C@H](COC1=O)N1C2[C@H]2c3c(cc(C)c(OC)c3O)C[C@@H]([C@@H]1C#N)N2C)OCO4 (some centres unmarked) [Compound 126] | – | – | 0.119 nM | 0.119 nM |
| COc1cc2c(cc1OC(=O)OC(C)(C)C)CCN[C@]21CS[C@@H]2c3c(OC)c(C)c4c(c3[C@H](COC1=O)N1C2[C@H]2c3c(cc(C)c(OC)c3OC)C[C@@H]([C@@H]1C#N)N2C)OCO4 (some centres unmarked) [Compound 127] | – | – | 0.117 nM | 0.117 nM |
| CCOc1c(C)c2c(c3c1[C@H]1SC[C@]4(NCCc5cc(OC(=O)OC(C)(C)C)c(OC)cc54)C(=O)OC[C@@H]3N3C1[C@H]1c4c(cc(C)c(OC)c4O)C[C@@H]([C@@H]3C#N)N1C)OCO2 (some centres unmarked) [Compound 128] | 1.17 nM | 1.17 nM | – | – |
| CCOc1c(C)c2c(c3c1[C@H]1SC[C@]4(NCCc5cc(OC(=O)OC(C)(C)C)c(OC)cc54)C(=O)OC[C@@H]3N3C1[C@H]1c4c(cc(C)c(OC)c4OCC)C[C@@H]([C@@H]3C#N)N1C)OCO2 (some centres unmarked) [Compound 129] | 11.3 nM | 11.3 nM | – | – |
| CCCOc1c(C)c2c(c3c1[C@H]1SC[C@]4(NCCc5cc(OC(=O)OC(C)(C)C)c(OC)cc54)C(=O)OC[C@@H]3N3C1[C@H]1c4c(cc(C)c(OC)c4O)C[C@@H]([C@@H]3C#N)N1C)OCO2 (some centres unmarked) [Compound 130] | 1.15 nM | 1.15 nM | – | – |
| CCCOc1c(C)c2c(c3c1[C@H]1SC[C@]4(NCCc5cc(OC(=O)OC(C)(C)C)c(OC)cc54)C(=O)OC[C@@H]3N3C1[C@H]1c4c(cc(C)c(OC)c4OCCC)C[C@@H]([C@@H]3C#N)N1C)OCO2 (some centres unmarked) [Compound 131] | 110 nM | 110 nM | – | – |
| C=CCOc1c(C)c2c(c3c1[C@H]1SC[C@]4(NCCc5cc(OC(=O)OC(C)(C)C)c(OC)cc54)C(=O)OC[C@@H]3N3C1[C@H]1c4c(cc(C)c(OC)c4O)C[C@@H]([C@@H]3C#N)N1C)OCO2 (some centres unmarked) [Compound 132] | 1.15 nM | 1.15 nM | – | – |
| C=CCOc1c(C)c2c(c3c1[C@H]1SC[C@]4(NCCc5cc(OC(=O)OC(C)(C)C)c(OC)cc54)C(=O)OC[C@@H]3N3C1[C@H]1c4c(cc(C)c(OC)c4OCC=C)C[C@@H]([C@@H]3C#N)N1C)OCO2 (some centres unmarked) [Compound 133] | 110 nM | 110 nM | – | – |
| COc1cc2c(cc1O)CCN[C@]21CS[C@@H]2c3c(OC(=O)/C=C/c4ccccc4)c(C)c4c(c3[C@H](COC1=O)N1C2[C@H]2c3c(cc(C)c(OC)c3OC(=O)/C=C/c3ccccc3)C[C@@H]([C@@H]1C#N)N2C)OCO4 (some centres unmarked) [Compound 138] | 1.01 nM | 1.01 nM | – | – |
| CCCC(=O)Oc1c(C)c2c(c3c1[C@H]1SC[C@]4(NCCc5cc(O)c(OC)cc54)C(=O)OC[C@@H]3N3C1[C@H]1c4c(cc(C)c(OC)c4O)C[C@@H]([C@@H]3C#N)N1C)OCO2 (some centres unmarked) [Compound 139] | 1.25 nM | 1.25 nM | – | – |
| CCCC(=O)Oc1c(C)c2c(c3c1[C@H]1SC[C@]4(NCCc5cc(O)c(OC)cc54)C(=O)OC[C@@H]3N3C1[C@H]1c4c(cc(C)c(OC)c4OC(=O)CCC)C[C@@H]([C@@H]3C#N)N1C)OCO2 (some centres unmarked) [Compound 140] | 1.15 nM | 1.15 nM | – | – |
| C=CCOC(=O)Oc1c(C)c2c(c3c1[C@H]1SC[C@]4(NCCc5cc(O)c(OC)cc54)C(=O)OC[C@@H]3N3C1[C@H]1c4c(cc(C)c(OC)c4O)C[C@@H]([C@@H]3C#N)N1C)OCO2 (some centres unmarked) [Compound 141] | – | – | 0.123 nM | 0.123 nM |
| COc1cc2c(cc1O)CCN[C@]21CS[C@@H]2c3c(OC(=O)CCCl)c(C)c4c(c3[C@H](COC1=O)N1C2[C@H]2c3c(cc(C)c(OC)c3O)C[C@@H]([C@@H]1C#N)N2C)OCO4 (some centres unmarked) [Compound 142] | 1.22 nM | 1.22 nM | – | – |

| SMILES | IC50 (A-549; Homo sapiens, A549, 72 h) | IC50 (HT-29; Homo sapiens, HT-29, 72 h) | IC50 (A-549) | IC50 (HT-29) |
| --- | --- | --- | --- | --- |
| CCCCCCCC(=O)Oc1c(C)c2c(c3c1[C@H]1SC[C@]4(NCCc5cc(O)c(OC)cc54)C(=O)OC[C@@H]3N3C1[C@H]1c4c(cc(C)c(OC)c4OC(=O)CCCCCCC)C[C@@H]([C@@H]3C#N)N1C)OCO2 (some centres unmarked) [Compound 145] | 102 nM | 102 nM | – | – |
| COc1cc2c(cc1O)CCN[C@]21CS[C@@H]2c3c(OC)c(C)c4c(c3[C@H](COC1=O)N1C2[C@H]2c3c(cc(C)c(OC)c3O)C[C@@H]([C@@H]1C#N)N2C)OCO4 (some centres unmarked) [Compound 149] | 0.135 nM | 0.135 nM | – | – |
| COc1cc2c(cc1O)CCN[C@]21CS[C@@H]2c3c(OC)c(C)c4c(c3[C@H](COC1=O)N1C2[C@H]2c3c(cc(C)c(OC)c3OC)C[C@@H]([C@@H]1C#N)N2C)OCO4 (some centres unmarked) [Compound 150] | 1.32 nM | 1.32 nM | – | – |
| CCOc1c(C)c2c(c3c1[C@H]1SC[C@]4(NCCc5cc(O)c(OC)cc54)C(=O)OC[C@@H]3N3C1[C@H]1c4c(cc(C)c(OC)c4O)C[C@@H]([C@@H]3C#N)N1C)OCO2 (some centres unmarked) [Compound 151] | 0.132 nM | 0.132 nM | – | – |
| CCOc1c(C)c2c(c3c1[C@H]1SC[C@]4(NCCc5cc(O)c(OC)cc54)C(=O)OC[C@@H]3N3C1[C@H]1c4c(cc(C)c(OC)c4OCC)C[C@@H]([C@@H]3C#N)N1C)OCO2 (some centres unmarked) [Compound 152] | 12.8 nM | 12.8 nM | – | – |
| CCCOc1c(C)c2c(c3c1[C@H]1SC[C@]4(NCCc5cc(O)c(OC)cc54)C(=O)OC[C@@H]3N3C1[C@H]1c4c(cc(C)c(OC)c4O)C[C@@H]([C@@H]3C#N)N1C)OCO2 (some centres unmarked) [Compound 153] | – | – | 0.13 nM | 0.13 nM |
| C=CCOc1c(C)c2c(c3c1[C@H]1SC[C@]4(NCCc5cc(O)c(OC)cc54)C(=O)OC[C@@H]3N3C1[C@H]1c4c(cc(C)c(OC)c4O)C[C@@H]([C@@H]3C#N)N1C)OCO2 (some centres unmarked) [Compound 155] | 1.3 nM | 1.3 nM | – | – |
| C=CCOc1c(C)c2c(c3c1[C@H]1SC[C@]4(NCCc5cc(O)c(OC)cc54)C(=O)OC[C@@H]3N3C1[C@H]1c4c(cc(C)c(OC)c4OCC=C)C[C@@H]([C@@H]3C#N)N1C)OCO2 (some centres unmarked) [Compound 156] | 12.4 nM | 12.4 nM | – | – |
| COc1cc2c(cc1O)CCN[C@]21CS[C@@H]2c3c(OCc4ccccc4)c(C)c4c(c3[C@H](COC1=O)N1C2[C@H]2c3c(cc(C)c(OC)c3O)C[C@@H]([C@@H]1C#N)N2C)OCO4 (some centres unmarked) [Compound 157] | 0.122 nM | 0.122 nM | – | – |
| COc1cc2c(cc1O)CCN[C@]21CS[C@@H]2c3c(OCc4ccccc4)c(C)c4c(c3[C@H](COC1=O)N1C2[C@H]2c3c(cc(C)c(OC)c3OCc3ccccc3)C[C@@H]([C@@H]1C#N)N2C)OCO4 (some centres unmarked) [Compound 158] | 1.1 nM | 1.1 nM | – | – |
| COc1cc2c(cc1O)CCN[C@]21CS[C@@H]2c3c(OC(=O)C(F)(F)F)c(C)c4c(c3[C@H](COC1=O)N1C2[C@H]2c3c(cc(C)c(OC)c3OC(=O)C(F)(F)F)C[C@@H]([C@@H]1C#N)N2C)OCO4 (some centres unmarked) [Compound 160] | 1.09 nM | 1.09 nM | – | – |
| COc1cc2c(cc1O)CCN[C@]21CS[C@@H]2c3c(OC(=O)/C=C/c4ccccc4)c(C)c4c(c3[C@H](COC1=O)N1C2[C@H]2c3c(cc(C)c(OC)c3OC(=O)/C=C/c3ccccc3)C[C@@H]([C@@H]1O)N2C)OCO4 (some centres unmarked) [Compound 162] | 5.1 nM | 5.1 nM | – | – |
| CCCC(=O)Oc1c(C)c2c(c3c1[C@H]1SC[C@]4(NCCc5cc(O)c(OC)cc54)C(=O)OC[C@@H]3N3C1[C@H]1c4c(cc(C)c(OC)c4OC(=O)CCC)C[C@@H]([C@@H]3O)N1C)OCO2 (some centres unmarked) [Compound 164] | 11.6 nM | 11.6 nM | – | – |
| CCCCCCCC(=O)Oc1c(C)c2c(c3c1[C@H]1SC[C@]4(NCCc5cc(O)c(OC)cc54)C(=O)OC[C@@H]3N3C1[C@H]1c4c(cc(C)c(OC)c4OC(=O)CCCCCCC)C[C@@H]([C@@H]3O)N1C)OCO2 (some centres unmarked) [Compound 169] | 1.03 nM | 1.03 nM | – | – |
| CCOc1c(C)c2c(c3c1[C@H]1SC[C@]4(NCCc5cc(O)c(OC)cc54)C(=O)OC[C@@H]3N3C1[C@H]1c4c(cc(C)c(OC)c4O)C[C@@H]([C@@H]3O)N1C)OCO2 (some centres unmarked) [Compound 177] | 0.134 nM | 0.134 nM | – | – |
